SMILES strings stand for the structures.

Experimental findings from patent publication US20230363424A1, “COMPOUNDS AND METHODS FOR ENHANCING SWEETNESS OF SWEETENERS” (Conagen Inc., priority 2021, published 2023) are described below.

Holding throughout (format): in vivo, human
The subject of assay [1] is taste panelists. In words: Inherent sweetness, two-alternative forced choice sip and spit (2AFC) vs 1.5% sucrose control. Particulars: control 1.5% sucrose, n=30. On the procedure: The inherent sweetness of Compounds (1), (2), and (3) as perceived by human subjects was evaluated using a two-alternative forced choice “sip and spit” method (2AFC). The 2AFC test used for compound evaluation was a double-blinded and randomized test where taste panelists (n=30) evaluated a pair of sweetener solutions at a time—one sample is a 1.5% sucrose control, while the other is an aqueous solution containing a test compound at the indicated concentration. Panelists were instructed not to eat or drink (except water) for at least 1 hour before the test. During the test panelists were instructed to sip each sample, swirl it around their mouth and then expectorate. […] Panelists cleansed their palates by rinsing with water, eating a cracker and waiting for an interval of about 5 minutes. All samples were tested at ambient temperatures.

Assay [2] has as its system taste panelists. Description: Sweetness enhancing effect with sucrose, 2AFC sip and spit test. The conditions noted are these: control 5% sucrose solution, n=30. On the procedure:
(§1) The sweetness enhancing effect of Compounds (1), (2), and (3) when used with certain sweeteners (specifically, sucrose or rebaudioside M) was evaluated using a two-alternative forced choice “sip and spit” method (2AFC). The 2AFC test used for compound evaluation was a double-blinded and randomized test where taste panelists (n=30) evaluated a pair of sweetener solutions at a time—one sample contains aqueous sweetener solution plus compound (test sample), while the other contains the aqueous sweetener solution without compound (control). Each test sample was compared against a positive control. For example, if the test sample contained 5% sucrose solution with Compound (1), the positive control contained a 5% sucrose solution (i.e., without Compound (1)). Panelists were instructed not to eat or drink (except water) for at least 1 hour before the test. During the test panelists were instructed to sip each sample, swirl it around their mouth and then expectorate. After tasting each sample in the pair, panelists were instructed to record the sample that is “sweeter” in taste. Panelists cleansed their palates by rinsing with water, eating a cracker and waiting for an interval of about 5 minutes. All samples were tested at ambient temperatures.

Assay [3] deals with taste panelists. In words: Sweetness enhancing effect with rebaudioside M, 2AFC sip and spit test. Particulars: control 100 ppm Reb M solution, n=30. On the procedure:
as §1

[4] abbreviates: compound 20 ppm in aqueous solution.
Setting [5] is: compound 50 ppm in aqueous solution.
[6] abbreviates: compound 80 ppm in aqueous solution.
The mark [7] stands for this setting: compound 20 ppm in 100 ppm Reb M solution.

As to `Cc1cc(O)c2c(c1)OC(=O)CC2c1ccc(O)c(O)c1` (stereo not drawn) [Compound (1), 4-(3,4-dihydroxyphenyl)-5-hydroxy-7-methylchroman-2-one], the “panelists who chose Sample as comparable in sweetness to Control” value (shortened to “panelists who chose Sample as comparable”) in assay [1] (setting [4]) was 1 of 30 panelists chose Sample as; in assay [1] (setting [5]), 2 of 30 panelists chose Sample as; in assay [1] (setting [6]), 2 of 30 panelists chose Sample as. Also, the “panelists who chose Test Sample as sweeter than Control” value in assay [2] (compound 60 ppm in 5% sucrose solution) is reported as 21 of 30 panelists. Further, the “panelists who chose Sample as sweeter than Control” value in assay [3] (setting [7]) is given as 29 of 30 panelists.
On to `COc1cc(C2CC(=O)Oc3ccc(O)c(C)c32)ccc1O` (stereo not drawn) [Compound (2), 6-hydroxy-4-(4-hydroxy-3-methoxyphenyl)-5-methylchroman-2-one], for which the “panelists who chose Sample as comparable” value in assay [1] (setting [4]), in assay [1] (setting [5]) and in assay [1] (setting [6]) was 1 of 30 panelists chose Sample as in each case. Besides, the results for the “panelists who chose Sample as sweeter than Control” value in assay [2] (compound 40 ppm in 5% sucrose solution) and in assay [3] (setting [7]) were 29 of 30 panelists and 30 of 30 panelists, respectively.
For `COc1cc(C2CC(=O)Oc3cccc(O)c32)ccc1O` (stereo not drawn) [Compound (3), 5-hydroxy-4-(4-hydroxy-3-methoxyphenyl)chroman-2-one], the “panelists who chose Sample as comparable” value in assay [1] (setting [4]) is recorded as 2 of 30 panelists chose Sample as; in assay [1] (setting [5]), 2 of 30 panelists chose Sample as; in assay [1] (setting [6]), 1 of 30 panelists chose Sample as. Also, the “panelists who chose Sample as sweeter than Control” value in assay [2] (compound 20 ppm in 5% sucrose solution) was 28 of 30 panelists; in assay [3] (compound 40 ppm in 100 ppm Reb M solution), 20 of 30 panelists.
